Assay results as given in patent EP2767275A1, “Nortriptyline, haloperidol or prochlorperazine edisylate for use in the treatment of tuberculosis as well as two screening methods” (priority 2013, dated 2014).
Like-named read-outs stand apart in the source and are kept apart here.

What was measured:
[1] = system: M. bovis BCG-GFP; type: cell-based; details: for pattern-specific score (PSS): 10µM, 48 hr
[2] = system: HeLa cells stably expressing mRFP-GFP-LC3; type: cell-based, human; details: for mRFP to GFP co-localisation: 2 hr, N and PE 10µM, Chloroquine 25 µM, BafilomycinA1 100nM; for co-localisation of mRFP and GFP over time: different periods of time
Method: Second, an established assay was used for measuring autophagic flux based on a tandem mRFP-GFP-LC3 construct (Kimura et al., 2007). Since GFP is quenched in the acidic environment of autophagolysosomes whereas mRFP remains stable, agents blocking autophagy flux display higher colocalization of mRFP and GFP compared to those inducing autophagy. HeLa cells stably expressing mRFP-GFP-LC3 (Settembre et al., 2011) were treated with the compounds and the co-localization between mRFP and GFP was quantified. […] Similar results were obtained for the co-localisation of LC3-GFP with LBPA in HeLa-LC3-GFP cells (Figure 12D).
The increased acidification by PE is in apparent contradiction with the inhibition of autophagic flux. To solve this discrepancy, HeLa cells stably expressing mRFP-GFP- -LC3 were treated with the compounds for different periods of time.

[3] = system: M. bovis BCG-GFP; type: cell-based; details: 10µM, 4 days plus 24hr with alamar blue
[4] = system: M. bovis BCG-GFP; type: cell-based
[5] = system: HeLa cells; experiment: High content autophagy assay (LC3 immunostaining); type: cell-based, human; details: 10µM (Rapamycin 5.5 µM), 4 hr
Method: HeLa cells were treated with the compounds at a final concentration of 10µM, incubated for 4 hr, fixed with 3.7% PFA and immunostained with anti-LC3 antibody (clone PM036, MBL labs). Cells were counterstained by DAPI and Cell Mask Blue, imaged and analyzed as described above.
Autophagy is a key process regulated by mTOR (Laplante and Sabatini, 2012) and a known mediator of intracellular mycobacterial survival (Gutierrez et al., 2004; Kumar et al., 2010). The integration approach predicted that compounds from E1, but not E2, modulate autophagy. To test it, HeLa cells were treated with the compounds, immunostained for the autophagosome marker LC3 and multiple parameters reporting diverse facets of autophagosomes were extracted (Table 3). […] Of the three compounds validated in intracellular mycobacterial killing, Nortriptyline and PE belong to sub-cluster E1 whereas Haloperidol belongs to E2.

[6] = system: HeLa BAC GFP-Rab5c; experiment: Cell-based LDL trafficking assay; design: species or system human
[7] = system: A431 cells stably expressing GFP-Rab5; experiment: Live cell imaging of endosome motility; type: cell-based; details: 10µM, 2 hr
[8] = system: HeLa BAC LC3-GFP; type: cell-based, human
[9] = system: M. bovis BCG-GFP; type: cell-based; remark: listed apart in the source
[10] = system: LC3; details: for LC3-II band: 10 µM; for additive effects of BafilomycinA1 on LC3-II band: 10 µM with BafilomycinA1 100nM

Cn1cnc(N)c2ncnc1-2 [3-MA, 3-Methyl Adenine]
effect of 3-MA on action of Nortriptyline on mycobacterial survival [1]: reverted the effect of Nortriptyline on mycobacterial survival

CC1(C)CC2C1CCC1(C)OC2(C)CCC1O (centres unmarked) [3;7-EPOXYCARYOPHYLLAN-6-OL]
pattern-specific score (PSS) [1]: 0.7194

COc1cc2c(cc1OC)C1(O)C(=O)c3ccc(O)c(C(=O)O)c3OC1CO2 (centres unmarked) [12A-HYDROXY-9-DEMETHYLMUNDUSERONE-8-CARBOXYLIC ACID]
pattern-specific score (PSS) [1]: 0.8387

CO/C1=C\C(C)=C\[C@@H](C)[C@@H](O)[C@@H](C)C/C(C)=C/C=C/[C@H](OC)[C@@H]([C@@H](C)[C@@H](O)[C@H](C)[C@@]2(O)C[C@@H](O)[C@H](C)[C@@H](C(C)C)O2)OC1=O [BafilomycinA1]
mRFP to GFP co-localisation [2]: higher co-localisation
co-localisation of mRFP and GFP over time [2]: increased over time

CO/N=C(\C(=O)N[C@@H]1C(=O)N2C(C(=O)OCOC(=O)C(C)(C)C)=C(/C=C\c3scnc3C)CS[C@H]12)c1csc(N)n1 [CEFDITORIN PIVOXIL]
pattern-specific score (PSS) [1]: 0.8626

CCN(CC)CCCC(C)Nc1ccnc2cc(Cl)ccc12 (centres unmarked) [Chloroquine]
mRFP to GFP co-localisation [2]: higher co-localisation
co-localisation of mRFP and GFP over time [2]: increased over time

NC(C(=O)O)C(O)C(=O)O [D;L-THREO-3-HYDROXYASPARTIC ACID]
pattern-specific score (PSS) [1]: 0.8004

OC[C@@H](O)[C@@H](OC1O[C@H](CO)[C@@H](O)[C@H](O)[C@H]1O)[C@H](O)[C@@H](O)CO (some centres unmarked) [GLUCITOL-4-GUCOPYANOSIDE]
pattern-specific score (PSS) [1]: 0.8836

O=S(=O)(NCCNC/C=C/c1ccc(Br)cc1)c1cccc2cnccc12 [H89]
pattern-specific score (PSS) [1]: 0.9636

O=c1cc(-c2cc(O)c(O)c(O)c2)oc2cc(O)cc(O)c12 [HIERACIN]
pattern-specific score (PSS) [1]: 0.3164

O=C(CCCN1CCC(O)(c2ccc(Cl)cc2)CC1)c1ccc(F)cc1 [Haloperidol, 4-[4-(4-chlorophenyl)-4-hydroxy-1-piperidyl]-1-(4-fluorophenyl)-butan-1-one]
phenotype (phenotypic profile) in mycobacteria high content screen [1]: reduced bacterial intensity, fewer bacteria and infected cells
effect in the alamar blue screen [3]: lack of effect
bacteriostatic activity on M. bovis BCG-GFP at neutral and acidic pH ([4]; 10 µM): did not show bacteriostatic activity
effect on autophagy [5]: did not
intensity of LDL in early and late endosomes ([6]; 10µM, LDL pulse for different times): significantly increased the intensity of LDL in late, but not early endosomes
size, number and position of LDL-containing late endosomes ([6]; 10 µM, late, but not early endosomes): larger, more numerous and closer to the cell centre
mean square displacement of endosomes [7]: long, but not short, time-scale movements of GFP-Rab5 endosomes were significantly accelerated
motility of early endosomes [7]: much higher motility of early endosomes harboring high levels of Rab5

CN1CCc2c(c3ccccc3n2Cc2ccccc2)C1.CN1CCc2c(c3ccccc3n2Cc2ccccc2)C1.O=S(=O)(O)c1cccc2c(S(=O)(=O)O)cccc12 [MEBHYDROLIN NAPHTHALENESULFONATE]
pattern-specific score (PSS) [1]: 0.9999

CSc1ccc2c(c1)C(N1CCN(C)CC1)Cc1ccccc1S2.O=C(O)/C=C\C(=O)O (centres unmarked) [METHIOTHEPIN MALEATE]
pattern-specific score (PSS) [1]: 0.9941

CC([C@H](O)c1ccccc1)N(C)C (stereo partly drawn) [N-METHYL (-)EPHEDRINE]
pattern-specific score (PSS) [1]: 0.8936

CN(C)c1nc(N)c(C(=O)N=C(N)N)nc1Cl [N;N-DIMETHYLAMILORIDE]
pattern-specific score (PSS) [1]: 0.5976

CNCCC=C1c2ccccc2CCc2ccccc21 [Nortriptyline, 3-(10,11-dihydro-5H-dibenzo[a,d]cyclohepten-5-ylidene)-N-methyl-1-propanamine]
phenotype (phenotypic profile) in mycobacteria high content screen [1]: reduced bacterial intensity, fewer bacteria and infected cells
effect in the alamar blue screen [3]: lack of effect
bacteriostatic activity on M. bovis BCG-GFP at neutral and acidic pH [4]: did not show bacteriostatic activity
effect on autophagy [5]: strong effect on autophagy
additive effect with BafilomycinA1 and Chloroquine in increasing LC3-GFP vesicles [8]: had an additive effect
mRFP to GFP co-localisation [2]: low mRFP to GFP co-localisation
synergy with IFN-γ on mycobacterial survival [9]: synergized strongly with IFN-γ
LC3-II band [10]: significant increase in the LC3-II band
additive effects of BafilomycinA1 on LC3-II band [10]: additive effects of BafilomycinA1 were seen

CN1CCN(CCCN2c3ccccc3Sc3ccc(Cl)cc32)CC1 [Prochlorperazine edisylate, 2-chloro-10-[3-(4-methyl-1-piperazinyl)propyl]-10H-phenothiazine]
phenotype (phenotypic profile) in mycobacteria high content screen [1]: reduced bacterial intensity, fewer bacteria and infected cells
effect in the alamar blue screen [3]: lack of effect
bacteriostatic activity on M. bovis BCG-GFP at neutral and acidic pH ([4]; 10 µM): did not show bacteriostatic activity
effect on autophagy [5]: strong effect on autophagy
additive effect with BafilomycinA1 and Chloroquine in increasing LC3-GFP vesicles ([8]; 10 µM, 4 hours, Chloroquine 25 µM, BafilomycinA1 100nM): not
mRFP to GFP co-localisation [2]: higher co-localisation
co-localisation of mRFP and GFP over time [2]: increased within the first hr but then progressively decreased
synergy with IFN-γ on mycobacterial survival [9]: much weaker effect
LC3-II band [10]: significant increase in the LC3-II band
additive effects of BafilomycinA1 on LC3-II band [10]: not

C[C@@H]1CC[C@@]2(OC1)O[C@H]1C[C@H]3[C@@H]4CC[C@@H]5C[C@@H](O)CC[C@]5(C)[C@H]4CC[C@]3(C)[C@H]1[C@@H]2C [SMILAGENIN]
pattern-specific score (PSS) [1]: 0.7198

COc1cc2c3cc1Oc1cc(ccc1O)C[C@@H]1c4c(cc(OC)c(O)c4Oc4ccc(cc4)C[C@@H]3N(C)CC2)CC[N+]1(C)C.Cl.O.O.O.O.O.[Cl-] [TUBOCURARINE CHLORIDE]
pattern-specific score (PSS) [1]: 0.7944

TOTAROL ACETATE
pattern-specific score (PSS) [1]: 0.7904

TRIMEPRAZINE TARTRATE
pattern-specific score (PSS) [1]: 1
